This is an account of results in article PMC3871589, “Evaluation of STAT3 Signaling in ALDH+ and ALDH+/CD44+/CD24− Subpopulations of Breast Cancer Cells” (PLoS ONE, 2013).

The assay deals with tumor tissues from breast cancer stem-like cells. The assay is described as follows: Immunohistochemistry of tumor tissues (Ki-67, cleaved caspase-3). Type of assay: in vivo, NOD/SCID mice. To be noted: 5 mg/kg IP daily. How it is done:
Human breast cancer tissue microarray slides, comprising 95 breast cancer cases, were obtained from the Biochain Institute, Inc.. These slides were baked at 60°C for 1 hour. After deparaffinization, the slides were boiled in a pressure cooker filled with 10 mM Sodium Citrate (PH6.0), and then subjected to immunohistochemistry or immunofluorescence staining. P-STAT3 (Y705) (1∶25; Signaling Technology, Beverly, MA), ALDH1 (1∶100; BD Pharmingen, San Diego, CA), Ki-67 (1∶100; Santa Cruz Biotechnology, Santa Cruz, CA) or cleaved Caspase-3 (1∶100; Signaling Technology, Beverly, MA) antibody were used. For immunofluorescence, the slides were incubated with both primary antibodies and double-stained with Alexa Fluor® 488 conjugated anti-rabbit IgG and Alexa Fluor® 594 conjugated anti-mouse IgG (Cell Signaling Technology, Beverly, MA) overnight at 4°C. The nuclei were subsequently stained with DAPI. For immunohistochemistry, endogenous peroxidase activity was quenched by incubation in 3% hydrogen peroxide for 10 min. After blocking, the slides were incubated with primary antibody overnight at 4°C. The Histostain-Plus Kits (Invitrogen, Carlsbad, CA) were used per the manufacturer’s protocol. […] The staining intensity was scored under microscope as described elsewhere. Significance of correlation between P-STAT3 and ALDH1 was determined using two-sided Pearson Chi-square (χ^2) test.

As for `NS(=O)(=O)c1cccc2c1C(=O)c1cccc(O)c1C2=O` [LLL12], the “number of Ki-67 positive cells” value is reported as “decreased” and the “number of cleaved caspase-3 positive cells” value is “increased”.
